Test results from the NIST ThermoML archive (doi:10.1016/j.jct.2006.08.009).

Assay: mn = molality of the nth substance listed, in mol/kg
Conditions: 350 kPa, Liquid; for apparent molar heat capacity: Extra sensitive DSC

OC[C@@H](O)[C@H](O)[C@@H](O)CO [xylitol] + O
Conditions | apparent molar heat capacity [J/K/mol] | mass density [kg/m3]
278.15 K, m1 = 0.0499 | 278.9 | 1002.96
278.15 K, m1 = 0.1 | 288.4 | 1005.41
278.15 K, m1 = 0.4001 | 293.3 | 1020.49
278.15 K, m1 = 0.7496 | 297.2 | 1036.91
278.15 K, m1 = 1.001 | 299.5 | 1047.83
278.15 K, m1 = 1.498 | 303.4 | 1067.95
278.15 K, m1 = 1.997 | 301.8 | 1086.45
278.15 K, m1 = 2.701 | 311.1 | 1109.42
283.15 K, m1 = 0.0499 | 296.8 | 1002.63
283.15 K, m1 = 0.1 | 306.1 | 1005.03
283.15 K, m1 = 0.4001 | 310.2 | 1019.9
283.15 K, m1 = 0.7496 | 313.4 | 1036.06
283.15 K, m1 = 1.001 | 315.6 | 1046.82
283.15 K, m1 = 1.498 | 318.5 | 1066.63
283.15 K, m1 = 1.997 | 317.4 | 1084.9
283.15 K, m1 = 2.701 | 325 | 1107.65
288.15 K, m1 = 0.0499 | 310.8 | 1001.96
288.15 K, m1 = 0.1 | 319.8 | 1004.34
288.15 K, m1 = 0.4001 | 323.4 | 1019.04
288.15 K, m1 = 0.7496 | 326.2 | 1035
288.15 K, m1 = 1.001 | 328.1 | 1045.65
288.15 K, m1 = 1.498 | 330.3 | 1065.25
288.15 K, m1 = 1.997 | 328.7 | 1083.35
288.15 K, m1 = 2.701 | 335.7 | 1105.88
293.15 K, m1 = 0.0499 | 322.5 | –
293.15 K, m1 = 0.1 | 331.4 | –
293.15 K, m1 = 0.4001 | 334.8 | –
293.15 K, m1 = 0.7496 | 337.1 | –
293.15 K, m1 = 1.001 | 338.8 | –
293.15 K, m1 = 1.498 | 340.5 | –
293.15 K, m1 = 1.997 | 338.3 | –
293.15 K, m1 = 2.701 | 344.9 | –
298.15 K, m1 = 0.0499 | 332.9 | 999.86
298.15 K, m1 = 0.1 | 341.6 | 1002.2
298.15 K, m1 = 0.4001 | 344.5 | 1016.61
298.15 K, m1 = 0.7496 | 346.5 | 1032.27
298.15 K, m1 = 1.001 | 347.8 | 1042.69
298.15 K, m1 = 1.498 | 349.2 | 1061.92
298.15 K, m1 = 1.997 | 346.7 | 1079.8
298.15 K, m1 = 2.701 | 352.9 | 1101.9
303.15 K, m1 = 0.0499 | 342 | –
303.15 K, m1 = 0.1 | 350.4 | –
303.15 K, m1 = 0.4001 | 352.9 | –
303.15 K, m1 = 0.7496 | 354.6 | –
303.15 K, m1 = 1.001 | 355.8 | –
303.15 K, m1 = 1.498 | 356.9 | –
303.15 K, m1 = 1.997 | 354 | –
303.15 K, m1 = 2.701 | 359.9 | –
308.15 K, m1 = 0.0499 | 349.7 | 996.7
308.15 K, m1 = 0.1 | 358.1 | 999
308.15 K, m1 = 0.4001 | 360.4 | 1013.2
308.15 K, m1 = 0.7496 | 361.7 | 1028.7
308.15 K, m1 = 1.001 | 362.8 | 1038.8
308.15 K, m1 = 1.498 | 363.6 | 1057.9
308.15 K, m1 = 1.997 | 360.6 | 1075.2
308.15 K, m1 = 2.701 | 366.2 | 1097.2
313.15 K, m1 = 0.0499 | 356.5 | –
313.15 K, m1 = 0.1 | 365 | –
313.15 K, m1 = 0.4001 | 367 | –
313.15 K, m1 = 0.7496 | 368.1 | –
313.15 K, m1 = 1.001 | 369.1 | –
313.15 K, m1 = 1.498 | 369.7 | –
313.15 K, m1 = 1.997 | 366.6 | –
313.15 K, m1 = 2.701 | 371.9 | –
318.15 K, m1 = 0.0499 | 362.5 | 992.82
318.15 K, m1 = 0.1 | 370.9 | 995.17
318.15 K, m1 = 0.4001 | 372.9 | 1009.11
318.15 K, m1 = 0.7496 | 373.8 | 1024.37
318.15 K, m1 = 1.001 | 374.7 | –
318.15 K, m1 = 1.498 | 375.2 | –
318.15 K, m1 = 1.997 | 372 | –
318.15 K, m1 = 2.701 | 377.1 | –
